Data taken from ChEMBL document CHEMBL6114967, “Design and synthesis of novel sulfur-substituted triptolide with the ability to induce autophagy through inhibition of SRSF1 expression” (Eur J Med Chem, 2025).
Active and inactive are the calls of the source. The rule behind the calls is not given here.

Experiments:
HGC-27 [1] = assay: Antitumor activity against human HGC-27 cells xenografted in male BALB/c nude mouse assessed as tumor growth inhibition at 25 mg/kg, ip administered every day for 15 days relative to control; type: functional; conditions: HGC-27, 360 h, time 15 day, read-out: TGI
HGC-27 [2] = assay: Induction of autophagy in human HGC-27 cells assessed as increase in LC3 II/LC3 I ratio in tumor tissue at 25 to 100 mg/kg, ip administered daily; type: functional, organism-based; conditions: dose 25-100 mg/kg
AGS [3] = assay: Induction of apoptosis in human AGS cells assessed as necrotic cells at 2 uM incubated for 48 hrs by annexin V-FITC and PI staining based flow cytometry analysis (reference value: 0.44%); type: functional
[4] = Toxicity in male ICR mouse assessed as body weight gain at 1 g/Kg, ip measured after 7 days; type: organism-based; conditions: in vivo, 1000 mg/kg, 168 h, time 7 day
HGC-27 [5] = assay: Induction of cell cycle arrest in human HGC-27 cells assessed as increase in S phase ratio at 0.5 to 2 uM incubated for 24 hrs by staining based flow cytometric analysis ( Rvb = 50.19%); type: functional; conditions: dose 0.5-2 µM
AGS [6] = assay: Induction of autophagy in human AGS cells assessed as upregulation of LC3 I protein level at 0.5 to 2 uM incubated for 48 hrs by Western blotting analysis; type: functional, cell-based; conditions: dose 0.5-2 µM
HGC-27 [7] = assay: Induction of apoptosis in human HGC-27 cells assessed as necrotic cells at 0.5 uM incubated for 48 hrs by annexin V-FITC and PI staining based flow cytometry analysis (reference value: 0.062%); type: functional
[8] = Toxicity in male BALB/c nude mouse assessed as change in body weight at 25 to 100 mg/kg, ip administered daily and measured after 15 days; type: organism-based; conditions: in vivo, 360 h, dose 25-100 mg/kg, time 15 day
AGS [9] = assay: Induction of apoptosis in human AGS cells assessed as increase in cleaved caspase-3 expression at 0.5 to 2 uM incubated overnight by Western blotting analysis; type: functional, cell-based; conditions: dose 0.5-2 µM
AGS [10] = assay: Antiproliferative activity against human AGS cells assessed as inhibition of cell proliferation incubated for 72 hrs by MTT assay; type: functional, cell-based
AGS [11] = assay: Induction of apoptosis in human AGS cells assessed as late apoptotic cells at 1 uM incubated for 48 hrs by annexin V-FITC and PI staining based flow cytometry analysis (reference value: 3.15%); type: functional
HCT-116 = assay: Antiproliferative activity against human HCT-116 cells assessed as inhibition of cell proliferation incubated for 72 hrs by MTT assay; type: functional, cell-based; conditions: HCT-116, 72 h
HGC-27 [12] = assay: Induction of apoptosis in human HGC-27 cells assessed as necrotic cells at 1 uM incubated for 48 hrs by annexin V-FITC and PI staining based flow cytometry analysis (reference value: 0.062%); type: functional
AGS [13] = assay: Induction of apoptosis in human AGS cells assessed as increase in cleaved PARP expression at 0.5 to 2 uM incubated overnight by Western blotting analysis; type: functional, cell-based; conditions: dose 0.5-2 µM
[14] = Antiproliferative activity against human LO2 cells assessed as inhibition of cell proliferation incubated for 72 hrs by MTT assay; type: toxicity, cell-based, L02
HGC-27 [15] = assay: Induction of apoptosis in human HGC-27 cells assessed as late apoptotic cells at 1 uM incubated for 48 hrs by annexin V-FITC and PI staining based flow cytometry analysis (reference value: 5.02%); type: functional
HGC-27 [16] = assay: Induction of cell cycle arrest in human HGC-27 cells assessed as reduction in CyclinE2 expression at 0.5 to 2 uM by Western blotting analysis; type: functional, cell-based; conditions: dose 0.5-2 µM
AGS [17] = assay: Induction of apoptosis in human AGS cells assessed as necrotic cells at 0.5 uM incubated for 48 hrs by annexin V-FITC and PI staining based flow cytometry analysis (reference value: 0.44%); type: functional
HGC-27 [18] = assay: Induction of apoptosis in human HGC-27 cells assessed as viable cells at 0.5 uM incubated for 48 hrs by annexin V-FITC and PI staining based flow cytometry analysis (reference value: 91.8%); type: functional; conditions: read-out: Activity
HGC-27 [19] = assay: Downregulation of RNA splicing pathway in human HGC-27 cells at 2 uM incubated for 24 hrs by GESA; type: functional, cell-based
HGC-27 [20] = assay: Induction of apoptosis in human HGC-27 cells assessed as viable cells at 1 uM incubated for 48 hrs by annexin V-FITC and PI staining based flow cytometry analysis (reference value: 91.8%); type: functional; conditions: read-out: Activity
HGC-27 [21] = assay: Induction of apoptosis in human HGC-27 cells assessed as increase in cleaved caspase-3 expression at 0.5 to 2 uM incubated overnight by Western blotting analysis; type: functional, cell-based; conditions: dose 0.5-2 µM
AGS [22] = assay: Induction of autophagy in human AGS cells assessed as upregulation of LC3 II protein level at 0.5 to 2 uM incubated for 48 hrs by Western blotting analysis; type: functional, cell-based; conditions: dose 0.5-2 µM
HGC-27 [23] = assay: Induction of apoptosis in human HGC-27 cells assessed as late apoptotic cells at 2 uM incubated for 48 hrs by annexin V-FITC and PI staining based flow cytometry analysis (reference value: 5.02%); type: functional
AGS [24] = assay: Induction of apoptosis in human AGS cells assessed as viable cells at 2 uM incubated for 48 hrs by annexin V-FITC and PI staining based flow cytometry analysis (reference value: 92.0%); type: functional; conditions: read-out: Activity
HGC-27 [25] = assay: Induction of apoptosis in human HGC-27 cells assessed as necrotic cells at 2 uM incubated for 48 hrs by annexin V-FITC and PI staining based flow cytometry analysis (reference value: 0.062%); type: functional
AGS [26] = assay: Downregulation of Bcl-xl protein level in human AGS cells at 0.5 to 2 uM by Western blotting analysis; type: functional, cell-based; conditions: dose 0.5-2 µM
HGC-27 [27] = assay: Upregulation of MAP1LC3B mRNA expression in human HGC-27 cells at 2 uM incubated for 24 hrs; type: functional, cell-based
AGS [28] = assay: Induction of apoptosis in human AGS cells assessed as early apoptotic cells at 1 uM incubated for 48 hrs by annexin V-FITC and PI staining based flow cytometry analysis (reference value: 4.44%); type: functional
AGS [29] = assay: Induction of apoptosis in human AGS cells assessed as early apoptotic cells at 0.5 uM incubated for 48 hrs by annexin V-FITC and PI staining based flow cytometry analysis (reference value: 4.44%); type: functional
AGS [30] = assay: Downregulation of SRSF1 protein level in human AGS cells at 0.5 to 2 uM by Western blotting analysis; type: functional, cell-based; conditions: dose 0.5-2 µM
HGC-27 [31] = assay: Downregulation of Bcl-xl expression in human HGC-27 cells at 0.5 to 2 uM incubated overnight by Western blotting analysis; type: functional, cell-based; conditions: dose 0.5-2 µM
U-251 = assay: Antiproliferative activity against human U-251 cells assessed as inhibition of cell proliferation incubated for 72 hrs by MTT assay; type: functional, cell-based; conditions: U-251, 72 h
BGC-823 = assay: Antiproliferative activity against human BGC-823 cells assessed as inhibition of cell proliferation incubated for 72 hrs by MTT assay; type: functional, cell-based; conditions: BGC-823, 72 h
[32] = Acute toxicity in male ICR mouse assessed as abnormal hepatocyte morphology at 1 g/Kg, ip measured after 7 days by H and E staining based light microscopic analysis; type: organism-based; conditions: in vivo, 1000 mg/kg, 168 h, time 7 day
AGS [33] = assay: Induction of autophagy in human AGS cells assessed as upregulation of Beclin1 protein level at 0.5 to 2 uM incubated for 48 hrs by Western blotting analysis; type: functional, cell-based; conditions: dose 0.5-2 µM

## CC(C)[C@]12O[C@H]1[C@@H]1O[C@]13[C@]1(O[C@H]1C[C@H]1C4=C(CC[C@@]13C)C(=S)OC4)[C@@H]2O
HGC-27 [1]
  inhibition in vivo at 25 mg/kg: 63.7%
HGC-27 [2]
  Activity: Active
AGS [3]
  Activity: 0.82%
[4]
  Activity: Non-toxic
HGC-27 [5]
  Activity: 75.34%
AGS [6]
  Activity: Active
HGC-27 [7]
  Activity: 0.13%
[8]
  Activity: Non-toxic
AGS [9]
  Activity: Active
AGS [10]
  IC50: 0.64 µM
AGS [11]
  Activity: 17%
HCT-116
  IC50: 0.4 µM
HGC-27 [12]
  Activity: 0.11%
AGS [13]
  Activity: Active
[14]
  IC50 at 72 h: 2.86 µM
HGC-27 [15]
  Activity: 9.29%
HGC-27 [16]
  Activity: Active
AGS [17]
  Activity: 0.55%
HGC-27 [18]
  viability at 0.5 µM: 85.9%
HGC-27 [19]
  Activity: Active
HGC-27 [20]
  viability at 1 µM: 84.5%
HGC-27 [21]
  Activity: Active
AGS [22]
  Activity: Active
HGC-27 [23]
  Activity: 19.7%
AGS [24]
  viability at 2 µM: 35.9%
HGC-27 [25]
  Activity: 0.16%
AGS [26]
  Activity: Active
HGC-27 [27]
  Activity: Active
AGS [28]
  Activity: 17.2%
AGS [29]
  Activity: 9.27%
AGS [30]
  Activity: Active
HGC-27 [31]
  Activity: Active
U-251
  IC50: 1.62 µM
BGC-823
  IC50: 1.33 µM
[32]
  Activity: Non-toxic
AGS [33]
  Activity: Active
